Results from patent US11136291B2, “Antifungal compounds and uses thereof” (Dana-Farber Cancer Institute, Inc., priority 2016, dated 2021).
Converted amounts (≈) assume the structure as drawn. “Also recorded” adds a separate entry of the source.

What was measured:
S. cerevisiae = assay: Cell growth inhibition screen with 5 μM ketoconazole; conditions: in the presence of 5 μM ketoconazole
Protocol: S. cerevisiae SEY6210 wild-type strains were grown in YPD (U % yeast extract, 2% bacto peptone, 2% dextrose) at 30° C. with shaking overnight until saturation. The next day, cultures were inoculated to an OD600 of 0.0007 and grown for 17 hours, to an OD600˜0.5, 384-well plates were set up in duplicate with either YPD alone or with YPD containing a final concentration of 5 μM ketoconazole. 384-well plates contained 5 two-fold dilutions of each compound, corresponding to a final concentration range of 20 μg/mL to 1.25 μg/mL. Wells were inoculated with cells to a final OD600 of 0.00025 in YPD.

CgGal11A KIX domain = target: T1, CgGal11A KIX domain (Candida glabrata, UniProt Q6FRS9); assay: Fluorescence polarization (FP) binding/competition assay, CgPdr1 AD30 with CgGal11A KIX; conditions: calculated from measured Kd and IC50; read-out: apparent Ki
T1 construct: other: compared with iKIX1; other: GST-CgGal11A KIX 3 μM, 30 nM FITC-CgPdr1 AD30; Kd of CgPdr1 AD30 for CgGal11A KIX domain; other: FP titration, 30 nM FITC-CgPdr1 AD30; Kd of the CgPdr1 AD for the CgGal11A KIX domain; apparent Ki; fused on or other part: N-terminal His6-GST tag
T1 sequence (Q6FRS9 whole entry, looked up, the tested form may be a part): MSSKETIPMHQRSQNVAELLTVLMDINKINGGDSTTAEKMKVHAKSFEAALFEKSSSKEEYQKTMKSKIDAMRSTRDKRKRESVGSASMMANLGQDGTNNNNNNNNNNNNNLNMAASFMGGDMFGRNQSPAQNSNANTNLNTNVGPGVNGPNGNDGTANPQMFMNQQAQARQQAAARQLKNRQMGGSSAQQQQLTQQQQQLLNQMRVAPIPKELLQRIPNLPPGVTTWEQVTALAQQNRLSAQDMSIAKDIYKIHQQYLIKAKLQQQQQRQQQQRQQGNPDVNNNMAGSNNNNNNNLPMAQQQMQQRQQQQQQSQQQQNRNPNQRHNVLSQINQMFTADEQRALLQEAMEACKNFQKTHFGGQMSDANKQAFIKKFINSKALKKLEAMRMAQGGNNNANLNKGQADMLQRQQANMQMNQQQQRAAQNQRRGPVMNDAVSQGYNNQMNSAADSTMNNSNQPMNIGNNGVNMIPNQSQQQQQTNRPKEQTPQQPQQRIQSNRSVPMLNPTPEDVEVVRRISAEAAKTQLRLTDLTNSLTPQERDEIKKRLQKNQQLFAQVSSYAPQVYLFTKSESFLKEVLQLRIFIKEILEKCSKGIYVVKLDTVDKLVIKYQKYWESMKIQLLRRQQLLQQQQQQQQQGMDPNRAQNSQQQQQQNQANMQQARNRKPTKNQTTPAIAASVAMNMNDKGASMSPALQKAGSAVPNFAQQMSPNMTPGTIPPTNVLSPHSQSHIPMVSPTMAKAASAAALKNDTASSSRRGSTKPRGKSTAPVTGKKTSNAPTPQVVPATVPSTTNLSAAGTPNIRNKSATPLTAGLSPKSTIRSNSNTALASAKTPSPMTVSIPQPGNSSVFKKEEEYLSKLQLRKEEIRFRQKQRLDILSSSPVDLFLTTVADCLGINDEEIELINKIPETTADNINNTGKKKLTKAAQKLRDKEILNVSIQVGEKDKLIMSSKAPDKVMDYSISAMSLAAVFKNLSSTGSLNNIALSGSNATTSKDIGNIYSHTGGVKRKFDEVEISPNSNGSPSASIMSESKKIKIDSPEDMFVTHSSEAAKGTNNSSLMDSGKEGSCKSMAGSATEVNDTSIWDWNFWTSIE
Protocol: A fluorescein-tagged 30 amino acid C-terminal activation domain of CgPdr1 (FITC-[…] (SEQ ID NO: 1)) CgPdr1 AD30 was purchased as a synthetic peptide from Pepide2.0. The CgGal11A KIX domain was expressed as a His6-GST fusion protein and purified by affinity chromatography with Ni-NTA resin (Qiagen) and size exclusion chromatography (Sephadex 75, Pharmacia). […] For small molecule screening, fluorescein-CgPdr1 AD30 was held at a concentration of 30 nM and the GST-tagged CgGal11A KIX was at a concentration of 1 μM (above the Kd). The screen was carried out in duplicate and the volume in each well was 25 μL.
To measure the dissociation constant (Kd) of CgPdr1 AD30, FITC labeled CgPdr1 AD30 was held at a concentration of 30 nM and the GST-tagged CgGal11A KIX was prepared with concentrations ranging from 0 to 300 μM. The IC50 for iKIX-1 binding was measured with GST-tagged CgGal11A KIX held at a constant 3 μM concentration, iKIX-1 was titrated from 0 to 1000 μM and 30 nM FITC-labeled CgPdr1 AD30 was added subsequently with an HP D300 digital dispenser (Tecan Group. Maennerdorf, Switzerland). All experiments were carried out in duplicate and the s.d. is reported at each point on the plot.
The FP titration curve of the CgPdr1 AD30 was fitted to GraphPad Prisms (La Jolla, Calif., USA) One site-total binding equation (equation 1). […]

[1] = tested on: PDRE-dependent luciferase gene transcription; assay type: cell-based, Saccharomyces cerevisiae; conditions: 40 μM ketoconazole
Candida albicans SC5314 = assay: Broth dilution MIC
Protocol: (§1) Antifungal susceptibility testing was carried out using broth dilution assays which examined effects of two-fold dilutions of compounds on cellular growth. The minimum inhibitory concentration (MIC) was defined as the drug concentration at which the optical density was equal to or decreased more than 50% from that of the drug-free culture.

SREBP-target genes = assay: Transcription of SREBP-target genes in HepG2 cells; assay type: cell-based, Human; conditions: concentrations up to 100 μM, 24 hours
Protocol: For transcription assays, HepG2 cells were seeded in MEM+10% FBS on 12-well poly-D-lysine-coated plates at a concentration of 175,000 cells per mL. After cells attached (4 hours), media was aspirated and iKIX1 was added in fresh MEM+10% FBS to final concentrations indicated. Cells were treated with iKIX1 for 24 hours before RNA was isolated using Trizol according to manufacturer's instructions. Quantitative real-time RT-PCR was carried out as described above.

[2] = tested on: ScPdr1 target genes (ScPDR5, ScSNQ2); assay: Transcription assay, quantitative real-time PCR of ScPdr1 target genes; assay type: cell-based, Saccharomyces cerevisiae; conditions: ketoconazole induced
Protocol: ChIP was performed according to standard procedures (see. e.g., McConnell A D, Gelbart M E, Tsukiyama T. Histone fold protein Dls1p is required for Isw2-dependent chromatin remodeling in vivo. Mol Cell Biol. 2004; 24(7):2605-13. PMCID: 371119). Briefly, cells were grown to saturation then washed 2 times with sterilized Milli-Q (Millipore) water, resuspended to an OD600 of 0.8 in YP (1% yeast extract, 2% bacto peptone) and then grown for 6 hours at 30° C. with shaking in the presence of DMSO (vehicle) or iKIX1. Cultures were induced with ketoconazole to a final concentration of 40 μM and harvested at the times indicated. 2 mL of culture was harvested at 0′ and 15′ for matched transcription samples; RNA was prepared as described below. Cells were fixed with 1% formaldehyde (final) for 15 minutes with swirling and then quenched with 125 mM glycine (final) for 5 min. with swirling. Cells were pelleted, washed with TBS+125 mM glycine and then TBS. Cells were lysed in buffer containing 50 mM HEPES, pH 7.5, 140 mM NaCl, 1% Triton X-100, 0.1% sodium deoxycholate, 1 mM EDTA and protease inhibitors and 0.5 mm glass beads. […]
For harvest and preparation of RNA. cells equivalent to an OD600 of 0.4 were centrifuged at 4,000 rpm for 4 minutes and then resuspended in 700 μL Trizol. […] Quantitative real-time PCR reactions were run and analyzed on a Roche LightCycler 480 system. […]

[3] = tested on: Candida parapsilosis DSY473; assay: Broth dilution MIC; conditions: ATCC22019
Protocol: as §1

Candida krusei DSY471 = assay: Broth dilution MIC; conditions: Pichia kudriavzevii, ATCC6258
Protocol: as §1

[4] = tested on: Candida tropicalis DSY472; assay: Broth dilution MIC; conditions: ATCC75
Protocol: as §1

N#CCC(=O)NNC(=S)Nc1ccc(Cl)c(Cl)c1 [iKIX1, 2-(2-Cyanoacetyl)-N-(3,4-dichlorophenyl)hydrazinecarbothioamide] was tested, and the cell growth (S. cerevisiae) was “inhibits cell growth in a concentration-dependent manner”, the Ki (CgGal11A KIX domain) was 18.1 µM and the “ketoconazole-induced luciferase activity (in words)” value [1] was “able to block this induction in a concentration-dependent manner; also recorded: inhibits ketoconazole (KET)-induced upregulation of luciferase activity in a dose-responsive manner”. For the same molecule, the MIC (Candida albicans SC5314) was 12.5 µM (≈ 3.79 µg/mL), the “effect on transcription of SREBP-target genes” value (SREBP-target genes) was “no effect” and the “azole-induced transcription of ScPdr1 target genes” value [2] was “strongly inhibited azole-induced transcription of ScPdr1 target genes”. The MIC [3] was 25 µM (≈ 7.58 µg/mL), the MIC (Candida krusei DSY471) was 6.25 µM (≈ 1.89 µg/mL) and the MIC [4] was 6.25 µM (≈ 1.89 µg/mL).
